Measured values taken from patent US6828317B2, “Antimicrobial thiadiazinone derivatives and their application for treatment of bacterial infections” (Pharmacia & Upjohn Company, priority 2002, dated 2004).
Converted amounts (≈) assume the structure as drawn.

What was measured:
S. pneumoniae UC9912 = assay: MIC by agar dilution, S. pneumoniae UC9912; assay type: cell-based; conditions: Streptococcus pneumoniae, Mueller Hinton agar, overnight at 35° C.
Source text: (§1) The in vitro activity of compounds of the subject invention may be assessed by standard testing procedures such as the determination of minimum inhibitory concentration (MIC) by agar dilution as described in “Approved Standard. Methods for Dilution Antimicrobial Susceptibility Tests for Bacteria that Grow Aerobically,” 3rd ed., published 1993 by the National Committee for Clinical Laboratory standards, Villanova, Pa., USA. The in vitro MICs of test compounds may be determined by a standard agar dilution method. A stock drug solution of each analog is prepared in a preferred solvent, usually DMSO:H2O (1:3). Serial 2-fold dilutions of each sample are made using 1.0 ml aliquots of sterile distilled water. To each 1.0 ml aliquot of drug is added 9 ml of molten Mueller Hinton agar medium. The drug-supplemented agar is mixed, poured into 15×100 mm petri dishes, and allowed to solidify and dry prior to inoculation. Vials of each of the test microorganisms are maintained frozen in the vapor phase of a liquid nitrogen freezer. Test cultures are grown overnight at 35° C. on the medium appropriate for the microorganism. Colonies are harvested with a sterile swab, and cell suspensions are prepared in Trypticase Soy broth (TSB) to equal the turbidity of a 0.5 McFarland standard. A 1:20 dilution of each suspension is made in TSB. The plates containing the drug supplemented agar are inoculated with a 0.001 ml drop of the cell suspension using a Steers replicator, yielding approximately 10^4 to 10^5 cells per spot. The plates are incubated overnight at 35° C. Following incubation the Minimum Inhibitory Concentration (MIC μg/ml), the lowest concentration of drug that inhibits visible growth of the microorganism, is read and recorded.

S. aureus UC9213 = assay: MIC by agar dilution, S. aureus UC9213; assay type: cell-based; conditions: Staphylococcus aureus, Mueller Hinton agar, overnight at 35° C.
Source text: as §1

H. influenzae 30063 = assay: MIC by agar dilution, H. influenzae 30063; assay type: cell-based; conditions: Haemophilus influenzae, Mueller Hinton agar, overnight at 35° C.
Source text: as §1

SMILES	MIC (S. pneumoniae UC9912) [µg/mL]	MIC (S. aureus UC9213) [µg/mL]	MIC (H. influenzae 30063) [µg/mL]	melting point [°C]
COC(=O)NC[C@H]1CN(c2ccc(C3=NNC(=O)CS3)c(F)c2)C(=O)O1 [Example 19]	0.125 (≈ 0.327 µM)	1 (≈ 2.62 µM)	4 (≈ 10.5 µM)	–
O=C1CSC(c2ccc(N3C[C@H](CNC(=O)C4CC4)OC3=O)cc2F)=NN1 [Example 16, Cyclopropanecarboxylic acid {3-[3-fluoro-4-(5-oxo-5,6-dihydro-4H-[1,3,4]thiadiazin-2-yl)-phenyl]-2-oxo-oxazolidin-5(S)-ylmethyl}-amide]	0.125 (≈ 0.319 µM)	2 (≈ 5.1 µM)	2 (≈ 5.1 µM)	239 to 240
CC(=O)CC(=O)NC[C@H]1CN(c2ccc(C3=NNC(=O)CS3)c(F)c2)C(=O)O1 [Example 21, N-{3-[3-Fluoro-4-(5-oxo-5,6-dihydro-4H-[1,3,4]thiadiazin-2-yl)-phenyl]-2-oxo-oxazolidin-5(S)-ylmethyl}-3-oxo-butyramide]	0.5 (≈ 1.22 µM)	4 (≈ 9.79 µM)	8 (≈ 19.6 µM)	176 to 178
O=C1CSC(c2ccc(N3C[C@H](CO)OC3=O)cc2F)=NN1 [Example 34]	0.25 (≈ 0.768 µM)	0.125 (≈ 0.384 µM)	1 (≈ 3.07 µM)	224 to 227
O=C(/C=C/c1ccc(/C=N/O)cc1)NC[C@H]1CN(c2ccc(C3=NNC(=O)CS3)c(F)c2)C(=O)O1 [Example 23, N-{3-[3-Fluoro-4-(5-oxo-5,6-dihydro-4H-[1,3,4]thiadiazin-2-yl)-phenyl]-2-oxo-oxazolidin-5(S)-ylmethyl}-3-[4-(hydroxyimino-methyl)-phenyl]-acrylamide]	0.25 (≈ 0.503 µM)	1 (≈ 2.01 µM)	8 (≈ 16.1 µM)	144 to 145
CC(=O)NC[C@H]1CN(c2ccc(C3=NNC(=O)C(C(C)C)S3)c(F)c2)C(=O)O1 (stereo partly drawn) [Example 7, N-{3-[3-Fluoro-4-(6-isopropyl-5-oxo-5,6-dihydro-4H-[1,3,4]thiadiazin-2-yl)-phenyl]-2-oxo-oxazolidin-5(S)-ylmethyl}-acetamide]	–	–	–	201 to 203
NC(=O)NC[C@H]1CN(c2ccc(C3=NNC(=O)CS3)c(F)c2)C(=O)O1 [Example 18, {3-[3-Fluoro-4-(5-oxo-5,6-dihydro-4H-[1,3,4]thiadiazin-2-yl)-phenyl]-2-oxo-oxazolidin-5(S)-ylmethyl}-urea]	0.125 (≈ 0.34 µM)	2 (≈ 5.44 µM)	4 (≈ 10.9 µM)	235 to 236
CC(=O)NC[C@H]1CN(c2ccc(C3=NNC(=O)[C@H](C)S3)c(F)c2)C(=O)O1 [Example 2, N-{3-[3-Fluoro-4-(6(S)-methyl-5-oxo-5,6-dihydro-4H-[1,3,4]thiadiazin-2-yl)-phenyl]-2-oxo-oxazolidin-5(S)-ylmethyl}-acetamide]	0.25 (≈ 0.657 µM)	1 (≈ 2.63 µM)	4 (≈ 10.5 µM)	200 to 202
O=C(CO)NC[C@H]1CN(c2ccc(C3=NNC(=O)CS3)c(F)c2)C(=O)O1 [Example 17, N-{3-[3-Fluoro-4-(5-oxo-5,6-dihydro-4H-[1,3,4]thiadiazin-2-yl)-phenyl]-2-oxo-oxazolidin-5(S)-ylmethyl}-2-hydroxyacetamide]	0.125 (≈ 0.327 µM)	2 (≈ 5.23 µM)	4 (≈ 10.5 µM)	157 to 158
CC(=O)NC[C@H]1CN(c2ccc(C3=NNC(=O)C(C)(C)S3)c(F)c2)C(=O)O1 [Example 4, N-{3-[4-(6,6-Dimethyl-5-oxo-5,6-dihydro-4H-[1,3,4]thiadiazin-2-yl)-3-fluorophenyl]-2-oxo-oxazolidin-5(S)-ylmethyl}-acetamide]	0.25 (≈ 0.634 µM)	2 (≈ 5.07 µM)	16 (≈ 40.6 µM)	179 to 181
O=C(CC(=O)c1ccc(F)cc1)NC[C@H]1CN(c2ccc(C3=NNC(=O)CS3)c(F)c2)C(=O)O1 [Example 22, N-{3-[3-Fluoro-4-(5-oxo-5,6-dihydro-4H-[1,3,4]thiadiazin-2-yl)-phenyl]-2-oxo-oxazolidin-5(S)-ylmethyl}-3-(4-fluorophenyl)-3-oxo-propionamide]	1 (≈ 2.05 µM)	4 (≈ 8.19 µM)	16 (≈ 32.8 µM)	184 to 187
CC(=O)NC[C@H]1CN(c2ccc(C3=NNC(=O)[C@@H](C)S3)c(F)c2)C(=O)O1 [Example 3, N-{3-[3-Fluoro-4-(6(R)-methyl-5-oxo-5,6-dihydro-4H-[1,3,4]thiadiazin-2-yl)-phenyl]-2-oxo-oxazolidin-5(S)-ylmethyl}-acetamide]	0.25 (≈ 0.657 µM)	1 (≈ 2.63 µM)	4 (≈ 10.5 µM)	205 to 206
COC(=O)CN1N=C(c2ccc(N3C[C@H](CNC(C)=O)OC3=O)cc2F)SCC1=O [Example 33]	–	–	–	157 to 158
CC(=O)NC[C@H]1CN(c2ccc(C3=NN(C)C(=O)CS3)c(F)c2)C(=O)O1 [Example 32, N-{3-[3-Fluoro-4-(4-methyl-5-oxo-5,6-dihydro-[1,3,4]thiadiazin-2-yl)-phenyl]-2-oxo-oxazolidin-5(S)-ylmethyl}-acetamide]	0.5 (≈ 1.31 µM)	2 (≈ 5.26 µM)	16 (≈ 42.1 µM)	179 to 180
CC(=O)NC[C@H]1CN(c2ccc(C3=NNC(=O)C(c4ccccc4)S3)c(F)c2)C(=O)O1 (stereo partly drawn) [Example 9, N-{3-[3-Fluoro-4-(5-oxo-6-phenyl-5,6-dihydro-4H-[1,3,4]thiadiazin-2-yl)-phenyl]-2-oxo-oxazolidin-5(S)-ylmethyl}-acetamide]	0.5 (≈ 1.13 µM)	4 (≈ 9.04 µM)	16 (≈ 36.2 µM)	122 to 123
CCC1SC(c2ccc(N3C[C@H](CNC(C)=O)OC3=O)cc2F)=NNC1=O (stereo partly drawn) [Example 5, N-{3-[3-Fluoro-4-(6-ethyl-5-oxo-5,6-dihydro-4H-[1,3,4]thiadiazin-2-yl)-phenyl]-2-oxo-oxazolidin-5(S)-ylmethyl}-acetamide]	2 (≈ 5.07 µM)	4 (≈ 10.1 µM)	32 (≈ 81.1 µM)	177 to 179
CC(C)(C)OC(=O)NC[C@H]1CN(c2ccc(C3=NNC(=O)CS3)c(F)c2)C(=O)O1 [Example 20, N-{3-[3-Fluoro-4-(5-oxo-5,6-dihydro-4H-[1,3,4]thiadiazin-2-yl)-phenyl]-2-oxo-oxazolidin-5(S)-ylmethyl}-carbamic acid tert-butyl ester]	2 (≈ 4.71 µM)	2 (≈ 4.71 µM)	64 (≈ 151 µM)	167 to 168
CO/N=C/c1ccc(/C=C/C(=O)NC[C@H]2CN(c3ccc(C4=NNC(=O)CS4)c(F)c3)C(=O)O2)cc1 [Example 24, N-{3-[3-Fluoro-4-(5-oxo-5,6-dihydro-4H-[1,3,4]thiadiazin-2-yl)-phenyl]-2-oxo-oxazolidin-5(S)-ylmethyl}-3-[4-(methoxyimino-methyl)-phenyl]-acrylamide]	0.06 (≈ 0.117 µM)	1 (≈ 1.95 µM)	> 64	–
CC(=O)NC[C@H]1CN(c2ccc(C3=NNC(=O)C4(CCC4)S3)c(F)c2)C(=O)O1 [Example 8, N-{3-[3-Fluoro-4-(9-oxo-5-thia-7,8-diazaspiro[3.5]non-6-en-6-yl)-phenyl]-2-oxo-oxazolidin-5(S)-ylmethyl}-acetamide]	0.5 (≈ 1.23 µM)	2 (≈ 4.92 µM)	32 (≈ 78.7 µM)	214 to 215
CC(=O)NC[C@H]1CN(c2ccc(C3=NNC(=O)C(OC(C)=O)S3)c(F)c2)C(=O)O1 (stereo partly drawn) [Example 31, Acetic acid 2-{4-[5(S)-(acetylaminomethyl)-2-oxo-oxazolidin-3-yl]-2-fluorophenyl}-5-oxo-5,6-dihydro-4H-[1,3,4]thiadiazin-6-yl ester]	–	–	–	174 to 177
CC(C)(C)OC(=O)NC[C@H]1CN(c2ccc(C3=NNC(=S)CS3)c(F)c2)C(=O)O1 [Example 28, N-{3-[3-Fluoro-4-(5-thioxo-5,6-dihydro-4H-[1,3,4]thiadiazin-2-yl)-phenyl]-2-oxo-oxazolidin-5(S)-ylmethyl}-carbamic acid tert-butyl ester]	–	–	–	134 to 136
CC(=S)NC[C@H]1CN(c2ccc(C3=NNC(=O)CS3)c(F)c2)C(=O)O1 [Example 25, N-{3-[3-Fluoro-4-(5-oxo-5,6-dihydro-4H-[1,3,4]thiadiazin-2-yl)-phenyl]-2-oxo-oxazolidin-5(S)-ylmethyl}-thioacetamide]	< 0.06	0.125 (≈ 0.327 µM)	0.5 (≈ 1.31 µM)	182 to 183
CC(=O)NC[C@H]1CN(c2ccc(C3=NNC(=O)CS3)c(F)c2)C(=O)O1 [Example 1, N-{3-[3-Fluoro-4-(5-oxo-5,6-dihydro-4H-[1,3,4]thiadiazin-2-yl)-phenyl]-2-oxo-oxazolidin-5(S)-ylmethyl}-acetamide]	< 0.06	0.5 (≈ 1.36 µM)	1 (≈ 2.73 µM)	206 to 209
CC(=O)NC[C@H]1CN(c2ccc(C3=NNC(=O)C(F)S3)c(F)c2)C(=O)O1 (stereo partly drawn) [Example 10, N-{3-[3-Fluoro-4-(6-fluoro-5-oxo-5,6-dihydro-4H-[1,3,4]thiadiazin-2-yl)-phenyl]-2-oxo-oxazolidin-5(S)-ylmethyl}-acetamide]	–	–	–	218 to 220
